Measurements: patent US8883504B2, “Cell differentiation suppressing agent, method of culturing cells using the same, culture solution, and cultured cell line” (Asahi Kasei Kabushiki Kaisha, priority 2003, dated 2014)

Assays:
STAT3 [1] = assay: STAT3 activation assay 2 (pSTAT3-TA-Luc luciferase reporter); assay type: cell-based, mouse; settings: D3ES cells, agent 0.4 to 40 μg/mL or ESGRO 10 to 10,000 unit/mL, 6 to 24 hours, FIG. 12
Experimental: For the D3ES cells prepared by the method described in (3) preparation of the ES cell of Example 1, 1×10^5 cells were seeded on a 24-well cell culture dish (Falcon, Cat. No. 3047, USA) coated previously with a 0.1% aqueous gelatin solution to make the ES cell medium in 500 μL per 1 well followed by culturing at 37° C. in 5% CO2 incubator for 12 hours to 24 hours. Next, by using LipofectAMINE 2000 (Invitrogen Corp. made, USA) by a protocol attached to the product, 0.9 μg/well of pSTAT3-TA-Luc or pTA-Luc vector (Clontech Corp. made, USA) was transfected into the ES cells. On the other hand, 0.1 μg of the internal control, pRL-TK vector (Promega Corp. made, USA) was transfected at the same time for each well. Following culturing at 37° C. in 5% CO2 incubator for 4 hours, the medium was sucked and washed twice with PBS and, then, the 500 μL-ES assay medium was added to each well. […] Next, by using PicaGene Dual SeaPansy (Toyo Ink, Japan) by the attached protocol, the luminescence signal generated by the luciferase reporter enzyme of each cell was measured.

STAT3 [2] = assay: STAT3 activation assay 1 (pSTAT3-TA-Luc luciferase reporter); assay type: cell-based, mouse; settings: D3ES cells, agent 0.4 to 40 μg/mL or ESGRO 10 to 10,000 unit/mL, 6 to 24 hours, FIG. 5
Experimental: For the D3ES cells prepared by the method described in (3) preparation of a mouse ES cell of Example 1, 1×10^5 cells in 500 μL ES medium were seeded in a well of a 24-well cell culture dish (Falcon Corp. made, Cat No. 3047, USA) coated previously with a 0.1% aqueous gelatin solution, followed by culturing at 37° C. in 5% CO2 incubator for 12 hours to 24 hours. Next, by using LipofectAMINE 2000 (Invitrogen Corp. made, USA) by a protocol attached to the product, 0.9 μg per 1 well of pSTAT3-TA-Luc or pTA-Luc vector (Clontech Corp. made, USA) was transfected into the ES cells. In addition, 0.1 μg of an internal control, pRL-TK vector (Promega Corp. made, USA) was transfected at the same time for each well. Following culturing at 37° C. in 5% CO2 incubator for 4 hours, the medium was sucked, and the cells were washed twice with PBS and, then, a 500 μL-ES assay medium was added to each well. […] Next, by using PicaGene Dual SeaPansy (Toyo Ink made, Japan) by the attached protocol, a luminescence signal generated by a luciferase reporter enzyme of each cell was measured.

[3] = tested on: mouse embryonic stem cell line D3ES cell; assay: Alkaline phosphatase staining 1; assay type: cell-based
Experimental: For the D3ES cell obtained by the preparation of the mouse ES cell as described in (3) above, 3×10^2 to 1×10^3 cells per well was seeded in […] of the ES cell assay medium in a well of a 96-well cell culture dish (Falcon Corp. made, Cat. No. 3072, USA) coated previously with a 0.1% aqueous gelatin solution. A 10 μl of the differentiation inhibiting agent (A,B,C,D,E,F: A to D were ASINEX Corp. (Russia) made and E to F were purchased from PHARMEKS Corp. (Russia)) of the present invention or ESGRO, which was dissolved in dimethylsulfoxide (DMSO), or water, or the mixture, was added to each well to make 0.4 to 40 μg/mL, and culturing was carried out at 37° C. in 5% CO2 incubator for 7 days. DMSO added to the medium was adjusted to make a final concentration of 0.1% or lower. On the other hand, to a control well was added only DMSO to make the final concentration of 0.1%.
The ES cells were stained by using an alkaline phosphatase kit (SIGMA Diagnostic Corp. made, Cat. No. 86-R). […]

Compound: CC(=O)c1ccc(/N=N/C(C(N)=O)=C2/NC(C)(C)Cc3ccccc32)cc1 [compound B, 2-(4-acetyl-phenylazo)-2-(3,3-dimethyl-3,4-dihydro-2H-isoquinoline-1-ylidene)-acetamide]
- expression of the luciferase reporter enzyme by pSTAT3-TA-Luc (STAT3 [1]): did not induce the expression of the reporter enzyme
- expression of the luciferase reporter enzyme by pSTAT3-TA-Luc (STAT3 [2]): did not induce the expression of the reporter enzyme
- undifferentiated colony formation compared with ES cells cultured in the presence of ESGRO (positive control) ([3]; compound 4 μg/mL, ESGRO 1000 units/mL): form an undifferentiated colony equal to that of the ES cells cultured in the presence of ESGRO
- alkaline phosphatase staining in comparison with ES cells cultured in the absence of ESGRO ([3]; compound B 4 μg/mL, FIG. 4): stained significantly more densely
